Data published in publication PMC5322872, “ALKBH7 Variant Related to Prostate Cancer Exhibits Altered Substrate Binding” (PLoS Computational Biology, 2017).

Target: T1, ALKBH7 (Homo sapiens, UniProt Q9BT30)
T1 sequence (Q9BT30 17-215): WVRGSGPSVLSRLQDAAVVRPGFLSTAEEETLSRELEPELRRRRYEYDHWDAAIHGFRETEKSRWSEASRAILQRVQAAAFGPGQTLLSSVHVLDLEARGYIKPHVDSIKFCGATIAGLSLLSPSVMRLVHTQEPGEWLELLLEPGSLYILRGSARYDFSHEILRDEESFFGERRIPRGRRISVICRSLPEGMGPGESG
Experiment: anaerobic difference UV-Vis spectroscopy (MLCT transition at […] nm)
Assay type: binding
Conditions: 0.3 mM protein, 100 uM Fe(II), α-kg 2 mM in Fig 4 legend but 0.2 mM in Methods

With `O=C(O)CCC(=O)C(=O)O` [α-kg] the “anaerobic difference UV-Vis spectroscopy (MLCT transition at 510 nm)” value was “The spectrum of WT ALKBH7·Fe(II)·α-kg minus that of ALKBH7·α-kg revealed the typical weak MLCT transitions”.
